pIC50: −log10 of the molar value.
Legend:
26 S proteasome = molecular target: T1, 26 S proteasome (Homo sapiens, UniProt P25787+P25789); experiment: 26 S proteasome challenged with mixture of three substrates (surrogate proteinase assay); assay type: biochemical; conditions: mixture of ChT-L, T-L and Casp-L substrates, 33.3 μM each; read-out: IC50, 26 S proteasome with substrates for all three peptidases
T1 construct: purified from erythrocytes; purchased Enzo Life Sciences, Inc. (Farmingdale, N.Y.); host or cells: human erythrocytes
Protocol: (§1) Human housekeeping 20 S and 26 S and complexes purified from erythrocytes were purchased from Enzo Life Sciences, Inc. (Farmingdale, N.Y.). The 1 mg/ml stock 20 S proteasome was diluted to 0.2 mg/ml working solution in 50 mM Tris/HCl, pH 8 containing 20% glycerol (dilution buffer). For the 26 S proteasome stock, the dilution buffer was supplemented with 2 mM ATP, 1 mM MgCl2, and 1 mM DTT (dithiothreitol). The ChT-L peptidase activity was measured as arbitrary intensity units of fluorescence emitted by 7-amino-4-methylcoumarin (AMC) released from the canonical model peptide substrate succinyl-LeuLeuValTyr-methylcoumarin (SucLLVY-MCA; Bachem Bioscience Inc., Philadelphia, Pa.), used at concentration of 100 μM. Free AMC (Sigma-Aldrich, St. Louis, Mo.) was used as the standard. The Rpt5 C-terminal peptide was synthesized (standard solid-phase peptide chemistry) and purified to at least 98% purity by GenScript (Piscataway, N.J.). The Rpt5 peptide and the peptide substrate were dissolved in dimethylsulfoxide (DMSO) and such stock solutions were stored at −20° C. The total concentration of DMSO in final reaction mixtures never exceeded 3% (vol/vol).
The reaction was carried out in 96-well plates, in 100 μL of reaction mixture, for 1 hour at 37° C. In the case of 20 S proteasome, the reaction mixture consisted of 45 mM Tris/HCl, pH 8, 100 mM KCl with premixed 10 μM Rpt5 peptide and 100 μM Suc-LLVY-MCA, to which 200 ng (nearly […]) of proteasome and desired concentration of tested compounds in 1 μL of DMSO were added. […] The reaction rates were calculated from a linear segment of kinetic curves constructed from measurements in 1-minutes intervals (Fluoroskan Ascent plate reader; Thermo Fisher Scientific Inc., Waltham, Mass.). Reaction rates were calculated using a linear fit executed by Slope Analyzer and Enzyme Kinetics applications launched within Origin Pro 2017 (OriginLab). […]

20 S proteasome = molecular target: T2, 20 S proteasome (Homo sapiens, UniProt P25787+P25789); experiment: PGPH peptidase activity of tRpt5-activated 20 S core; assay type: biochemical; conditions: core activated with tRpt5
T2 construct: purified from erythrocytes; purchased Enzo Life Sciences, Inc. (Farmingdale, N.Y.); host or cells: human erythrocytes
Protocol: as §1, with “The ChT-L peptidase activity was measured as arbitrary intensity units” left out, “([…];” for “(AMC) released from the canonical model peptide substrate succinyl-LeuLeuValTyr-methylcoumarin (SucLLVY-MCA;”, “The total concentration of DMSO in final reaction mixtures never exceeded 3% (vol/vol).” left out
The reaction was carried out in 96-well plates, in 100 μL of reaction mixture, for 1 hour at 37° C. […] The reaction rates were calculated from a linear segment of kinetic curves constructed from measurements in 1-minutes intervals (Fluoroskan Ascent plate reader; Thermo Fisher Scientific Inc., Waltham, Mass.). Reaction rates were calculated using a linear fit executed by Slope Analyzer and Enzyme Kinetics applications launched within Origin Pro 2017 (OriginLab). […]

## COc1cc(CCCOC(=O)[C@@H]2CCCCN2C(=O)OCc2ccccc2)cc(OC)c1OC [Compound 3, 1-benzyl 2-(3-(3,4,5-trimethoxyphenyl)propyl) (S)-piperidine-1,2-dicarboxylate]
26 S proteasome
  pIC50: 5.92
20 S proteasome
  pIC50: 5.59
